Consider one substance from patent US20070087352A9, “Inhibitors for androgen antagonist refractory prostate cancer” (priority 2003, published 2007).

One assay concerns the target T1, hERα-LBD (Homo sapiens, UniProt P03372).
T1 sequence (P03372 311-547 limits assumed): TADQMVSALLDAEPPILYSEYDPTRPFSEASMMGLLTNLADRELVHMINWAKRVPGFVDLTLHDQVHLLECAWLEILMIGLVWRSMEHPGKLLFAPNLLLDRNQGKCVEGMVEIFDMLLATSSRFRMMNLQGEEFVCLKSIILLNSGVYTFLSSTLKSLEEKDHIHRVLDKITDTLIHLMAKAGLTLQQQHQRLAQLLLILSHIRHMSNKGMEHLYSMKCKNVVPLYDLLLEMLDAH
The assay can be described thus: Electrophoretic mobility shift assay (native PAGE). The format is binding. Conditions: 2-fold or 10-fold molar excess of peptide, 6% native PAGE. Here is the method:
Eight microgram samples of purified hERα-LBD bound to either DES or OHT were incubated in the absence of the GRIP1 NR Box 2 peptide (SEQ ID NO:4), i.e., buffer alone, or in the presence of either a 2-fold or 10-fold molar excess of the GRIP1 NR Box 2 peptide. The binding reactions were performed on ice for 45 minutes in 10 μl of buffer containing 20 mM Tris, pH 8.1, 1 mM DTT, and 200 mM NaCl and then subjected to 6% native PAGE. Gels were stained with GELCODE Blue Stain reagent (Pierce).
In the presence of the NR box 2 peptide, the migration of the DES-LBD complex was retarded. In contrast, peptide addition had no effect on the mobility of the OHT-LBD complex.
A general note: Mobility shift assays separate free from complexed probe on a gel.

Another assay deals with T2, agonist-bound ERα LBD (Homo sapiens, UniProt P03372).
T2 sequence (P03372 311-547 limits assumed): T1 sequence (P03372 311-547 limits assumed)
The assay can be described thus: Competition assays of GRIP1 NR Box 2 peptide. The following applies: binding to agonist-bound ERα LBD.

“H-KHKILHRLLQDSS-OH [GRIP1 NR Box 2 peptide]”: the “migration of the DES-LBD complex” value at hERα-LBD (hERα-LBD bound to agonist DES) is listed as “retarded”. The “mobility of the OHT-LBD complex” value on hERα-LBD (hERα-LBD bound to antagonist OHT) is recorded as “no effect”. The IC50 at agonist-bound ERα LBD was below 400 nM.

As a reminder, the IC50 is the concentration at which inhibition is half-maximal.
